From ChEMBL document CHEMBL1201862, “PubChem BioAssay data set” (2004)
The source made the active and inactive calls.

Assays:
Cytochrome P450 2C19 = Cytochrome P450 2C19 (Homo sapiens, UniProt P33261); experiment: Cytochrome panel assay with activity outcomes. Panel member name: p450-cyp2c19 Compounds with AC50 equal or less than 10 uM are considered active; assay type: functional; conditions: read-out: AC50
Cytochrome P450 2C9 = Cytochrome P450 2C9 (Homo sapiens, UniProt P11712)
Cytochrome P450 2D6 = Cytochrome P450 2D6 (Homo sapiens, UniProt P10635);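 note: CYP2D6 member of a cytochrome P450 panel assay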
Sequence of Cytochrome P450 2D6 (P10635 whole entry): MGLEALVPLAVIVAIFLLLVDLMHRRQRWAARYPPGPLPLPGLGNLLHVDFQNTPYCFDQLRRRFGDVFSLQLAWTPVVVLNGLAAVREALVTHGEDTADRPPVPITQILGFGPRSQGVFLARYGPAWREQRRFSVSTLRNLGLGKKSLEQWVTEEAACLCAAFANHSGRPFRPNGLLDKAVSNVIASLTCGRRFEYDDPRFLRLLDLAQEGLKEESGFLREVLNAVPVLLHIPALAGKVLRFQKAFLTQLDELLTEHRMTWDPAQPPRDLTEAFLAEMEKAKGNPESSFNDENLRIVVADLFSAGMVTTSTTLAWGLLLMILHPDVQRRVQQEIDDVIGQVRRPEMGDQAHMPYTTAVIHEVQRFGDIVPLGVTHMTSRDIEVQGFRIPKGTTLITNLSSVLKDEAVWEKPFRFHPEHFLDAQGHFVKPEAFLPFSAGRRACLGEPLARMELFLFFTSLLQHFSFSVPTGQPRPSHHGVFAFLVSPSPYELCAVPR

Cytochrome P450 3A4 = Cytochrome P450 3A4 (Homo sapiens, UniProt P08684);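 note: CYP3A4 tested as one member of a cytochrome P450 panel screen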
Sequence of Cytochrome P450 3A4 (P08684 whole entry): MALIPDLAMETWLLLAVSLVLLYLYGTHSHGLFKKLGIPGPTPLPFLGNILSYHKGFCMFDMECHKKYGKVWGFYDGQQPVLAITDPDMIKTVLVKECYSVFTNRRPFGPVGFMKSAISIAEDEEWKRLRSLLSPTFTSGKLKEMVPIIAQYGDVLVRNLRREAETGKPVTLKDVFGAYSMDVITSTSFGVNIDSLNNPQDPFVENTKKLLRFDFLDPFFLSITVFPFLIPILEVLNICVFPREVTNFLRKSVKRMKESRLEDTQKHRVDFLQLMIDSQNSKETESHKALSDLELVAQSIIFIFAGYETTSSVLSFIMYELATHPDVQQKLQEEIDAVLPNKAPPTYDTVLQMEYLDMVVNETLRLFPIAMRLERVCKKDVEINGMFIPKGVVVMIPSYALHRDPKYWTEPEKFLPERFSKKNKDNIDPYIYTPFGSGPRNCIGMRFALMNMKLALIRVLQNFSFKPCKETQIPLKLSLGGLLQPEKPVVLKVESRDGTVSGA

HeLa = experiment: ATP-based viability loss in HeLa cells – cell-based, CellTiter-Glo luminescence, cherry-pick samples, cytotoxicity control for MITF activator project, dose response (AID 540259); assay type: functional; conditions: Homo sapiens
[1] = molecular target: Dual specificity protein kinase CLK1 (Homo sapiens, UniProt P49759); experiment: inhibition of human CLK1 activity – biochemical, cherry-picked samples, selectivity assay for Dyrk1A inhibitor project, dose response (AID 588811)
Sequence of Dual specificity protein kinase CLK1 (P49759 whole entry): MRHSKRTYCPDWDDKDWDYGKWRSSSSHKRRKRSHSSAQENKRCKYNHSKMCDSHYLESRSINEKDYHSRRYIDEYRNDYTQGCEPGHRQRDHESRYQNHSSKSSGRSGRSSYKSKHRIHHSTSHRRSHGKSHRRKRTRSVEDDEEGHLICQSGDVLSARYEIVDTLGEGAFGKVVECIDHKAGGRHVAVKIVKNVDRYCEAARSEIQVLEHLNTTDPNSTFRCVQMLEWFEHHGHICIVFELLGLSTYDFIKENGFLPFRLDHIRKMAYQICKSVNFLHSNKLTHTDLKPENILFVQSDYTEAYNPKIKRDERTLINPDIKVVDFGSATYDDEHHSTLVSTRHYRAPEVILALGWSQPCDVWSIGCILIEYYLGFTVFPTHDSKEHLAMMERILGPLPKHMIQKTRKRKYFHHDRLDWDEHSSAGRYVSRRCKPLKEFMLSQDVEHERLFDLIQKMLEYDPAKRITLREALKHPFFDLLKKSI

[2] = molecular target: Dual specificity tyrosine-phosphorylation-regulated kinase 1A (Rattus norvegicus, UniProt Q63470); assay type: biochemical, Homo sapiens
Insulin-degrading enzyme [3] = molecular target: T1, Insulin-degrading enzyme (Homo sapiens, UniProt P14735); experiment: recombinant IDE activation, cell-free – biochemical, fluorescence polarization, counter-screen for IDE activator project, dose response (AID 588681)
T1 sequence (P14735 whole entry): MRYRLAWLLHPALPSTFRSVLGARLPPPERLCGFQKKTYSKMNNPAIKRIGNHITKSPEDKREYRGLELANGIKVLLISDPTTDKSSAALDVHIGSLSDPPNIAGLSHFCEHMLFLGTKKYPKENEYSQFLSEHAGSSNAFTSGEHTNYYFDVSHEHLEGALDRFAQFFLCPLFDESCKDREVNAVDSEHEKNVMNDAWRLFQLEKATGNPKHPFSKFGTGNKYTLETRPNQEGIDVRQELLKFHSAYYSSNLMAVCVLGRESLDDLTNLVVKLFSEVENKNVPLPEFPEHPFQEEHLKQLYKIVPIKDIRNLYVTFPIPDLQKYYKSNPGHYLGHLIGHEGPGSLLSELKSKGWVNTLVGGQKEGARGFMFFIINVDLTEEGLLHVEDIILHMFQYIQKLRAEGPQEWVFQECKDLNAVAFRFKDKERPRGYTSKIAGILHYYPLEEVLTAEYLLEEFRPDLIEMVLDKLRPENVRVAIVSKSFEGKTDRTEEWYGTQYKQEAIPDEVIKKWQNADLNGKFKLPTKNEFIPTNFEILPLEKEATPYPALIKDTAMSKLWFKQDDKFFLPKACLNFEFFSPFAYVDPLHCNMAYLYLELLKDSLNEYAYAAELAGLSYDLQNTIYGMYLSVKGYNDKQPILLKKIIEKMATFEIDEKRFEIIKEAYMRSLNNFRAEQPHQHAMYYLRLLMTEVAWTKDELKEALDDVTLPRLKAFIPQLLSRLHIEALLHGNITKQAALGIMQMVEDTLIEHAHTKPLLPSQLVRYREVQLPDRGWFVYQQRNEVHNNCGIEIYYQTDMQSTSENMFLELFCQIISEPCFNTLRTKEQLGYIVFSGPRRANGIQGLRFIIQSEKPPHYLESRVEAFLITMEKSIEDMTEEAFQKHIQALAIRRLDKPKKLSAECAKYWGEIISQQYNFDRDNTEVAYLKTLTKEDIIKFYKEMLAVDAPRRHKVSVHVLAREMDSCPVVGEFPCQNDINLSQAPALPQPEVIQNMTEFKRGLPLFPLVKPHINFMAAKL

[4] = A Cell Based Secondary Assay To Explore Cytotoxicity of Compounds that Sensitize Mycobacterium Tuberculosis to Beta-Lactam Antibiotics.; assay type: functional
Insulin-degrading enzyme [5] = molecular target: T1, Insulin-degrading enzyme; experiment: cellular IDE activation of Abeta substrate cleavage – fluorescence polarization, HEK cells, dose response (AID 588439); assay type: functional, cell-based
HEK293 [6] = experiment: optical interference in Abeta FP readout, dose response, artefact control for IDE activator project, biochemical, fluorescence polarization (AID 588442); assay type: functional, cell-based; conditions: Homo sapiens
Melanocortin receptor 4 = Melanocortin receptor 4 (Homo sapiens, UniProt P32245); assay type: functional, cell-based;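 note: Cell-based assay with luminescence read-out, confirmatory dose-response testing for agonist activity of biased ligands at MC4R; human U2OS cells with tagged receptor and beta-arrestin; potency of agonists that increase receptor coupling to beta-arrestin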
Sequence of Melanocortin receptor 4 (P32245 whole entry): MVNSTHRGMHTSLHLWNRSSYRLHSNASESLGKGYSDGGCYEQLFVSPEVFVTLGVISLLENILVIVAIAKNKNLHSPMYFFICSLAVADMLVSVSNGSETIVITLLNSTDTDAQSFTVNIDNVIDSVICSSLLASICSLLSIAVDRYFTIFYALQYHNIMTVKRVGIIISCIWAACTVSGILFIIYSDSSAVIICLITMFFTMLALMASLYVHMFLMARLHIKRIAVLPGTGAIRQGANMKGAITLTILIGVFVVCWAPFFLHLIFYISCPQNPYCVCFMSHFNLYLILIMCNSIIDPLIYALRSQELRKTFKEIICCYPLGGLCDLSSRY

HEK293 [7] = experiment: membrane integrity loss in HEK cells – cell-based, fluorescence, cytotoxicity control for IDE activator project, dose response (AID 588440); assay type: functional; conditions: Homo sapiens;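 note: cytotoxicity by LDH release measuring loss of membrane integrity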
[8] = molecular target: T2, High affinity choline transporter 1 (Homo sapiens, UniProt Q9GZV3); experiment: human choline transporter blockers, potency – cell-based, 10-point CRC, membrane potential dye, dose response (AID 588401); assay type: functional;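 note: membrane potential dye fluorescence of choline-evoked depolarization via CHT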
T2 sequence (Q9GZV3 whole entry): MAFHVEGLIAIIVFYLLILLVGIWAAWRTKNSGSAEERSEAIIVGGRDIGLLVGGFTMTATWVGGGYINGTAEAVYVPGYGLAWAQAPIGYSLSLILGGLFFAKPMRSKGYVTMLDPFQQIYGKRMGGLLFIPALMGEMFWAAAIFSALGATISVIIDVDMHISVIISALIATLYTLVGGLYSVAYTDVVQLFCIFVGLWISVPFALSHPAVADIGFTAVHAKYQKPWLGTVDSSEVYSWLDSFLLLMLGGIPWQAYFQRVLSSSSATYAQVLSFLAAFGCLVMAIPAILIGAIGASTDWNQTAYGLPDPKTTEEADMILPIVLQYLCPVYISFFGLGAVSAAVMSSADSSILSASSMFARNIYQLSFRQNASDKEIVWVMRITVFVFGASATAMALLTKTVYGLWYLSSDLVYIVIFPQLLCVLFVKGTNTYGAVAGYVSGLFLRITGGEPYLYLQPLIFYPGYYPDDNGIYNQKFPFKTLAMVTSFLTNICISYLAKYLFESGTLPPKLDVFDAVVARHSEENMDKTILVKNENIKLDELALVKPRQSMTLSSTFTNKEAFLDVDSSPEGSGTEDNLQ

[9] = molecular target: T2, High affinity choline transporter 1; experiment: human choline transporter blockers, potency – cell-based, 5-point CRC, membrane potential dye, dose response (AID 504840); assay type: functional
HEK293 [10] = experiment: cells; conditions: Homo sapiens
HEK293 [11] = experiment: cells; conditions: Homo sapiens; remark: listed apart in the source

Sequence of Cytochrome P450 2C19 (P33261 whole entry): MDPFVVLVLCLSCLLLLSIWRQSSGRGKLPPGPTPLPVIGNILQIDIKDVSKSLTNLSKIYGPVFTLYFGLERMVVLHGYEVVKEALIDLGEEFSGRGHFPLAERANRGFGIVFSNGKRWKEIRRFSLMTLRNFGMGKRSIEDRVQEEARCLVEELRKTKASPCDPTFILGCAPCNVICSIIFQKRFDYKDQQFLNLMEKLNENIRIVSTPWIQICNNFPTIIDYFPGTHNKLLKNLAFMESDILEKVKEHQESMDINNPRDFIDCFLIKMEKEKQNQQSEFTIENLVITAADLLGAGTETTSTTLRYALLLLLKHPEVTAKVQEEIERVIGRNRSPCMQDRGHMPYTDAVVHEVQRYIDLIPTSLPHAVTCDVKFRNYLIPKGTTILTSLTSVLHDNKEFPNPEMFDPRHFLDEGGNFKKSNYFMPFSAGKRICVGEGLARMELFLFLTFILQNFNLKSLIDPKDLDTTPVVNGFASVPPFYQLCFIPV
Sequence of Cytochrome P450 2C9 (P11712 whole entry): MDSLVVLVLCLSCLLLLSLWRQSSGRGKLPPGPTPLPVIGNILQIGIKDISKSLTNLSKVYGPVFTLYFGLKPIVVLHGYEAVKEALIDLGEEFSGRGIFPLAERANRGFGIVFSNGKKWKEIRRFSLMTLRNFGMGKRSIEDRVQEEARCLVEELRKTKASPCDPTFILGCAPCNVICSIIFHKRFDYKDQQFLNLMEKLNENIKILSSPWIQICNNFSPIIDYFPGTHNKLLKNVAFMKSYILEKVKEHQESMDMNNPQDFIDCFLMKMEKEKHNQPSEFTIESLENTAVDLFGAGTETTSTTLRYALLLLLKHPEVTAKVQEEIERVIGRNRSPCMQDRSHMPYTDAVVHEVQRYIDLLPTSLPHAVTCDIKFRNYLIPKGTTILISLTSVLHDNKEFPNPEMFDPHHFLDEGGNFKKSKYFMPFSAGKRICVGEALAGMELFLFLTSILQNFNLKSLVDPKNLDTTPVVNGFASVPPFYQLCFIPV

Structure (SMILES): CCCCNC(=O)c1cc2nc3c(c(C(F)(F)F)n2n1)CCc1ccccc1-3
- AC50 (Cytochrome P450 2C19): 15.8 µM (inconclusive)
- AC50 (Cytochrome P450 2C9): 0.398 µM (inconclusive)
- AC50 (Cytochrome P450 2D6): inconclusive
- AC50 (Cytochrome P450 3A4): 7.94 µM (inconclusive)

Structure (SMILES): COc1ccc(C(=O)c2c[nH]c3ccccc23)cc1
- AC50 (HeLa): 41.9 µM (active)

Structure (SMILES): Cc1nc(NC(=O)c2ccccc2)sc1-c1csc(N)n1
- AC50 [1]: 1.35 µM (active)
- AC50 [2]: 1.26 µM (active)

Structure (SMILES): O=c1c2ccccc2oc2c1ccc1ccccc12
- AC50 (HeLa): 32.3 µM (active)

Structure (SMILES): Cc1cc(C)c2sc(N(CCCN(C)C)C(=O)COc3ccc(Cl)cc3)nc2c1
- EC50 (Insulin-degrading enzyme [3]): > 54.7 µM (inactive)
- CC50 [4]: > 40 µM (active)
- EC50 (Insulin-degrading enzyme [5]): > 54.7 µM (inactive)
- EC50 (HEK293 [6]): > 55.9 µM (inactive)
- EC50 (Melanocortin receptor 4): > 89.2 µM (inactive)
- IC50 (HEK293 [7]): 26.2 µM (inactive)

Structure (SMILES): CCn1c(SCCC(C)C)nnc1-c1c[nH]c2ccccc12
- IC50 [8]: 2.41 µM (active)
- IC50 [9]: 0.955 µM (active)

Structure (SMILES): COc1ccccc1-c1ccc2c(c1)C(C)(Cc1ccc(F)c(Cl)c1)C(=O)N2 (stereo not drawn)
- EC50 (HEK293 [10]): > 59.6 µM (inactive)
- EC50 (HEK293 [11]): > 59.6 µM (inactive)
